According to patent US8080423B2, “Reagent containing protease reaction promoter and/or colorant stabilizer” (Asahi Kasei Pharma Corporation, priority 2004, dated 2011):
Several values for one entry are separate records, joined by “and”; a condition that tells them apart may be missing. Equal values may be shown once. Read-outs that look alike come from different tables or passages of the source.

How the values were obtained:
[1] = system: Neutral protease (manufactured by Toyobo Co., Ltd.); experiment: Screening of protease reaction promoter (Example 1); assay type: biochemical; settings: for protease reaction promoting effect (in words): judged from Table 1
Description: 1) R-1: Reagent for Protein Decomposition
2) R-2: Reagent for Glycated Amino Acid Detection
The following substances were independently used as a test sample. Note that concentrations described in parentheses each represent a final concentration of the substance in the reagent R1.
Absorbance before the addition of the reagent R-2 and 5 minutes after the addition was measured at 660 nm. […] The AH-AL shown in Table 1 is a difference obtained by subtracting absorbance AL which was obtained from the primary calibrator at level 2 (5.38%) from absorbance AH which was obtained from the primary calibrator at level 4 (9.88%). Here, if AH-AL is large, the sample is judged to have a protease reaction promoting effect. In particular, when AH-AL is 20 or more, the sample has an excellent promoting effect.

[2] = Screening of stabilizer for colorant, MBTH-TOOS (Example 13); assay type: physicochemical
[3] = Screening of stabilizer for colorant, DA64 (Example 13); assay type: physicochemical; settings: DA-64, 750 nm, 37° C., additives at conc. (1%; IDA 1 mM; Zn, Al 0.1 mM; ferrocyanide 0.01 mM; sorbitol 5%; DMSO 10%)
Description: (§1) The following substances were used as test samples. Note that concentrations described in parentheses each represent a final concentration of the substance in the reagent R-1.
(§2) Tween-20 (1%), Brij35 (1%), Triton X-100 (1%), deoxycholic acid (1%), imino-diacetic acid (IDA; 1 mM), ZnSO4 (0.1 mM), AlCl3 (0.1 mM), potassium ferrocyanate (0.01 mM), sorbitol (5%), glucose (5%), sodium nitrite (2 mM), dimethylsulfoxide (DMSO; 10%) (those substances are manufactured by Wako Pure Chemical Industries, Inc.), 2-hydroxypropyl-β-cyclodextrin (2HP β CD; 0.5%, 2%, 5%) and methyl-β-cyclodextrin (M β CD; 0.5%, 2%, 5%) (those substances are manufactured by Nihon Shokuhin Kako Co., Ltd.).
(§3) 500 μl of the R-1 reagent and 500 μl of the R-2 which had been incubated to 37° C. were mixed. The mixture was incubated to 37° C. for 2 minutes, and absorbance thereof (A0) was measured. The mixture was added with 10 μl of 500 μM hydrogen peroxide or distilled water. The whole was incubated to 37° C., and absorbance exactly 5 minutes after the addition of hydrogen peroxide (A1) was measured, to calculate a change in absorbance ΔA (A1-A0). The absorbance was measured using a wavelength of 750 nm when DA64 was used as the colorant, a wavelength of 660 nm when DA67 was used as the colorant, and a wavelength of 570 nm when 4-AA-TOOS was used as the colorant.
(§4) Immediately after the preparation of the reagent, the reagent was preserved at 37° C. for 2 days and 9 days, and measurement of sensitivity of a blank which was distilled water and of hydrogen peroxide was performed.

[4] = Screening of stabilizer for colorant, DA67 (Example 13); assay type: physicochemical
Description: as §1, §2, §3, §4

[5] = test sample 1% in R-1, 660 nm, 20 or more = excellent promoting effect
[6] = test sample 2 mM in R-1, 660 nm
[7] = DA-67, 660 nm, 37° C., 0 days, additives at conc. (1%; IDA 1 mM; Zn, Al 0.1 mM; ferrocyanide 0.01 mM; sorbitol 5%; DMSO 10%)
[8] = DA-67, 660 nm, 37° C., 2 days, additives at conc. (1%; IDA 1 mM; Zn, Al 0.1 mM; ferrocyanide 0.01 mM; sorbitol 5%; DMSO 10%)
[9] = MBTH-TOOS, 570 nm, 37° C., 0 days, additives at conc. (1%; IDA 1 mM; Zn, Al 0.1 mM; ferrocyanide 0.01 mM; sorbitol 5%; DMSO 10%)
[10] = MBTH-TOOS, 570 nm, 37° C., 2 days, additives at conc. (1%; IDA 1 mM; Zn, Al 0.1 mM; ferrocyanide 0.01 mM; sorbitol 5%; DMSO 10%)
[11] = test sample 1 mM in R-1, 660 nm

Compound	AH (absorbance from primary calibrator at level 4 (9.88%)) ([1]; test sample 1% in R-1, 660 nm)	AL (absorbance from primary calibrator at level 2 (5.38%)) ([1]; test sample 1% in R-1, 660 nm)	AH − AL [1, 5]	protease reaction promoting effect (in words) [1]	further results
CCCCCCCCCCCC[N+](C)(C)CC(=O)[O-] [AM-301, betaine lauryl dimethylaminoacetate]	122.0	109.9	12.1 mAbs		
Nc1ncnc2c1ncn2[C@@H]1O[C@H](COP(=O)(O)OP(=O)(O)OP(=O)(O)O)[C@@H](O)[C@H]1O [ATP, adenosine 5′-triphosphate, reference compound]					AH (absorbance from primary calibrator at level 4 (9.88%)) [1, 6]: 57.8; AH − AL [1, 6]: 3.6 mAbs; AL (absorbance from primary calibrator at level 2 (5.38%)) [1, 6]: 54.2
[Cl][Al]([Cl])[Cl] [AlCl3]					AH (absorbance from primary calibrator at level 4 (9.88%)) [1]: 60.7; AH − AL [1]: 5.6 mAbs; AL (absorbance from primary calibrator at level 2 (5.38%)) [1]: 55.1; blank (distilled water) change in absorbance [2]: 0.045 Abs and 0.055 Abs and 0.058 Abs; change in absorbance when 500 μM of hydrogen peroxide was measured [2]: 0.005 and 0.009
C[C@H](CCC(=O)NCCC[N+](C)(C)CCCS(=O)(=O)[O-])[C@H]1CC[C@H]2[C@@H]3[C@H](O)C[C@@H]4C[C@H](O)CC[C@]4(C)[C@H]3C[C@H](O)[C@]12C [CHAPS, 3-[(3-cholamidopropyl)dimethyl-ammonio]propanesulfonic acid, reference compound]	111.4	104.5	6.9 mAbs		
C[S+](C)[O-] [Dimethylsulfoxide, dimethylsulfoxide, reference compound]					AH (absorbance from primary calibrator at level 4 (9.88%)) ([1]; test sample 10% in R-1, 660 nm): 63.0; AH − AL ([1]; test sample 10% in R-1, 660 nm): 3.4 mAbs; AL (absorbance from primary calibrator at level 2 (5.38%)) ([1]; test sample 10% in R-1, 660 nm): 59.6; blank (distilled water) change in absorbance ([3]; 0 days): −0.005 Abs; blank (distilled water) change in absorbance ([3]; 2 days): 0.085 Abs; blank (distilled water) change in absorbance ([3]; 9 days): 0.233 Abs; blank (distilled water) change in absorbance [4, 7]: 0.088 Abs; blank (distilled water) change in absorbance [4, 8]: 2.103 Abs; blank (distilled water) change in absorbance [2, 9]: 0.149 Abs; blank (distilled water) change in absorbance [2, 10]: 1.134 Abs
CCCCCCCCCCCCCOCCOCCOCCOCCOCCOCCOCC(=O)[O-].[Na+] [ECTD-6NEX, sodium polyoxyethylene(6)tridecyl ether acetate]	82.9	53.4	29.5 mAbs	effects were observed	
Cc1cc2nc3c(=O)[nH]c(=O)nc-3n(C[C@H](O)[C@H](O)[C@H](O)COP(=O)(O)OP(=O)(O)OC[C@H]3O[C@@H](n4cnc5c(N)ncnc54)[C@H](O)[C@@H]3O)c2cc1C [FAD, flavin adenine dinucleotide, reference compound]					AH (absorbance from primary calibrator at level 4 (9.88%)) [1, 6]: 46.2; AH − AL [1, 6]: 0.7 mAbs; AL (absorbance from primary calibrator at level 2 (5.38%)) [1, 6]: 45.5
O=C(O)CNCC(=O)O [IDA, imino-diacetic acid, reference compound]					AH (absorbance from primary calibrator at level 4 (9.88%)) [1, 11]: 67.7; AH − AL [1, 11]: 5.5 mAbs; AL (absorbance from primary calibrator at level 2 (5.38%)) [1, 11]: 62.2; blank (distilled water) change in absorbance ([3]; 0 days): −0.010 Abs; blank (distilled water) change in absorbance ([3]; 2 days): 0.078 Abs; blank (distilled water) change in absorbance ([3]; 9 days): 0.210 Abs; blank (distilled water) change in absorbance [4, 7]: 0.089 Abs; blank (distilled water) change in absorbance [4, 8]: 2.131 Abs; blank (distilled water) change in absorbance [2, 9]: 0.151 Abs; blank (distilled water) change in absorbance [2, 10]: 1.213 Abs
CCCCCCCCCCCC(=O)N(C)CCS(=O)(=O)[O-].[Na+] [LMT, sodium N-lauroyl methyl taurinate]	102.4	73.0	29.4 mAbs	effects were observed	
CCCCCCCCCCCCOP(=O)(O)O [Phosten HLP, lauryl phosphate]	134.6	121.9	12.7 mAbs		
CCCCCCCCCCCCOCCOCCOS(=O)(=O)O.OCCN(CCO)CCO [SBL-2T-36, triethanolamine polyoxyethylene(2)lauryl ether sulfate]	93.3	65.3	28.0 mAbs	effects were observed	
CCCCCCCCCCCCOCCOCCOCCOCCOS(=O)(=O)O.OCCN(CCO)CCO [SBL-4T, triethanolamine polyoxyethylene(4)lauryl ether sulfate]	103.2	75.2	28.0 mAbs	effects were observed	
CCCCCCCCCCCCOS(=O)(=O)[O-].[Na+] [SLS, sodium lauryl sulfate, reference compound]	53.3	48.7	4.6 mAbs		
O=NO [Sodium nitrite, sodium nitrite, reference compound]					AH (absorbance from primary calibrator at level 4 (9.88%)) [1]: 107.9; AH − AL [1]: 26.2 mAbs; AL (absorbance from primary calibrator at level 2 (5.38%)) [1]: 81.7
O=[N+]([O-])c1ccc(-[n+]2nc(-c3ccc(S(=O)(=O)O)cc3S(=O)(=O)O)nn2-c2ccc(I)cc2)c([N+](=O)[O-])c1 [WST-3, 2-(4-iodophenyl)-3-(2,4-dinitrophenyl)-5-(2,4-disulfophenyl)-2H-tetrazolium, reference compound]					AH (absorbance from primary calibrator at level 4 (9.88%)) [1, 6]: 184.6; AH − AL [1, 6]: 23.7 mAbs; AL (absorbance from primary calibrator at level 2 (5.38%)) [1, 6]: 160.9
O=S(=O)([O-])[O-].[Zn+2] [ZnSO4, reference compound]					AH (absorbance from primary calibrator at level 4 (9.88%)) [1]: 145.7; AH − AL [1]: 1.6 mAbs; AL (absorbance from primary calibrator at level 2 (5.38%)) [1]: 144.1; blank (distilled water) change in absorbance [4]: 0.051 Abs and 0.062 Abs and 0.050 Abs; blank (distilled water) change in absorbance [2]: 0.050 Abs and 0.049 Abs and 0.055 Abs; change in absorbance when 500 μM of hydrogen peroxide was measured [2]: 0.003
monostearate polyoxyethylene(15)glyceryl [TMGS-15]	92.0	82.2	9.8 mAbs		
sodium cocoyl sarcosinate [Sarcosinate CN-30]	106.2	76.6	29.6 mAbs	effects were observed	
sodium polyoxyethylene(3)tridecyl ether acetate [ECTD-3NEX]	95.8	68.3	27.5 mAbs	effects were observed	
triethanolamine polyoxyethylene(3)alkyl ether sulfate [SBL-203-27]	112.1	84.3	27.8 mAbs	effects were observed	
